Assay results published in patent US6008372A, “Substituted dinaphthylmethyl and diheteroarylmethylacetyl histidine inhibitors of protein farnesyltransferase” (Warner-Lambert Company, priority 1998, dated 1999).
Structures can show the parent of a compound that is named as a salt. Where two headings read alike, the source gives them in different places.

Key:
[1] = test system: Ras farnesylation in H-ras-NIH3T3 cells; assay: Gel shift assay: inhibition of Ras farnesylation in H-ras-NIH3T3 cells; type: cell-based; conditions: 18-hour incubation, read-out: Inhibition of Ras Farnesylation (Minimum Effective Dose)
Description: Twenty-four hours after planting 2×10^6 ras-transformed cells per treatment condition, the farnesylation inhibitor is added at varying concentrations. Following an 18-hour incubation period, cells are lysed in phosphate-buffered saline containing 1% Triton X-100, 0.5% sodium deoxycholate, and 0.1% SDS, pH 7.4 in the presence of several protease inhibitors (PMSF, antipain, leupeptin, pepstatin A, and aprotinin all at 1 μg/mL). Ras protein is immunoprecipitated from the supernatants by the addition of 3 μg v-H-ras Ab-2 (Y13-259 antibody from Oncogene Science). After overnight immunoprecipitation, 30 μL of a 50% protein G-Sepharose slurry (Pharmacia) is added followed by 45-minute incubation. Pellets are resuspended in 2× tris-glycine loading buffer (Novex) containing 5% B-mercaptoethanol and then denatured by 5 minutes boiling prior to electrophoresis on 14% Tris-glycine SDS gels. Using Western transfer techniques, proteins are transferred to nitrocellulose membranes followed by blocking in blocking buffer. Upon overnight incubation with primary antibody (pan-ras Ab-2 from Oncogene Science), an antimouse HRP conjugate secondary antibody (Amersham) is employed for detection of the ras protein. Blots are developed using ECL techniques (Amersham).
The data in Table 1 show farnesyl protein transferase inhibitory activity, and activity in the gel shift assay against ras protein of selected compounds of Formula I.

[2] = target: T1, rat brain farnesyl protein transferase (Rattus norvegicus, UniProt Q02293+Q04631); assay: Protein:farnesyltransferase (PFT/FPT) inhibitory activity assay; type: biochemical
T1 construct: 40-fold purified rat brain farnesyl protein transferase; from tissue; host or cells: rat brain

[3] = Hepes (without 5 mM phosphate), read-out: Farnesyl Protein Transferase Inhibition, Hepes, IC50
[4] = Hepes/5 mM PO4^-3, pH 7.4, read-out: Farnesyl Protein Transferase Inhibition, Hepes/5 mM PO4^-3, IC50

Row | Compound | minimal effective concentration [1] | IC50 [2, 3] | IC50 [2, 4]
1 | C=CCOC(=O)[C@H](Cc1c[nH]cn1)NC(=O)C(Cc1cccc2ccccc12)Cc1cccc2ccccc12 [Example 15, (S)-3-(1H-Imidazol-4-yl)-2-(3-naphthalen-1-yl-2-naphthalen-1-ylmethyl-propionylamino)-propionic acid, allyl ester] | 25 µM | 400 nM | 200 nM
2 | N#CCCOC(=O)[C@H](Cc1c[nH]cn1)NC(=O)C(Cc1cccc2ccccc12)Cc1cccc2ccccc12 [Example 17, (S)-3-(1H-Imidazol-4-yl)-2-(3-naphthalen-1-yl-2-naphthalen-1-ylmethyl-propionylamino)-propionic acid, 2-cyanoethyl ester] | 10 µM | 80 nM | 70 nM
3 | N#CCCNC(=O)[C@H](Cc1c[nH]cn1)NC(=O)C(Cc1cccc2ccccc12)Cc1cccc2ccccc12 [Example 41, (S)-N-[1-(2-Cyano-ethylcarbamoyl)-2-(1H-imidazol-4-yl)-ethyl]-3-naphthalen-1-yl-2-naphthalen-1-ylmethyl-propionamide] | 5 µM | 970 nM | 710 nM
4 | O=C(N[C@@H](Cc1c[nH]cn1)C(=O)OCCO)C(Cc1cccc2ccccc12)Cc1cccc2ccccc12 [Example 42, (S)-3-(1H-Imidazol-4-yl)-2-(3-naphthalen-1-yl-2-naphthalen-1-ylmethyl-propionylamino)-propionic acid, 2-hydroxy-ethyl ester, trifluoroacetate salt] | – | 1800 nM | 1300 nM
5 | CN(C)C(=O)[C@H](Cc1c[nH]cn1)NC(=O)C(Cc1cccc2ccccc12)Cc1cccc2ccccc12 [Example 43, (S)-N-[1-Dimethylcarbamoyl-2-(1H-imidazol-4-yl)-ethyl]-3-naphthalen-1-yl-2-naphthalen-1-ylmethyl-propionamide] | – | 5600 nM | 3800 nM
6 | C#CCCOC(=O)[C@H](Cc1c[nH]cn1)NC(=O)C(Cc1cccc2ccccc12)Cc1cccc2ccccc12 [Example 44, (S)-3-(1H-Imidazol-4-yl)-2-(3-naphthalen-1-yl-2-naphthalen-1-ylmethyl-propionylamino)-propionic acid, but-3-ynyl ester, trifluoroacetate salt] | – | 230 nM | 210 nM
7 | N#CCCOC(=O)[C@H](Cc1c[nH]cn1)NC(=O)C(CC1CCCC2CCCCC21)CC1CCCC2CCCCC21 (stereo partly drawn) [Example 45, (S)-2-[3-(Decahydro-naphthalen-1-yl)-2-(decahydro-naphthalen-1-ylmethyl)-propionylamino]-3-(1H-imidazol-4-yl)-propionic acid, 2-cyano-ethyl ester] | – | 490 nM | 320 nM
8 | CCCNC(=O)[C@H](Cc1c[nH]cn1)NC(=O)C(Cc1cccc2ccccc12)Cc1cccc2ccccc12 [Example 46] | – | 4900 nM | 5600 nM
9 | O=C(N[C@@H](Cc1c[nH]cn1)C(=O)OCCn1ccnc1)C(Cc1cccc2ccccc12)Cc1cccc2ccccc12 [Example 47, (S)-3-[1H-Imidazol-4-yl)-2-(3-naphthalen-1-yl-2-naphthalen-1-ylmethyl-propionylamino)-propionic acid, 2-imidazol-1-yl-ethyl ester] | – | 1100 nM | 1400 nM
10 | C=CCCOC(=O)[C@H](Cc1c[nH]cn1)NC(=O)C(Cc1cccc2ccccc12)Cc1cccc2ccccc12 [Example 48, (S)-3-(1H-Imidazol-4-yl)-2-(3-naphthalen-1-yl-2-naphthalen-1-ylmethyl-propionylamino)-propionic acid, but-3-enyl ester] | – | 1200 nM | 1300 nM
11 | N#CCCOC(=O)[C@H](Cc1c[nH]cn1)NC(=O)C(Cc1cccc2c1CCCC2)Cc1cccc2c1CCCC2 [Example 49, (S)-3-(1H-Imidazol-4-yl)-2-[3-(5,6,7,8-tetrahydro-naphthalen-1-yl)-2-(5,6,7,8-tetrahydro-naphthalen-1-ylmethyl)-propionylamino]-propionic acid, 2-cyano-ethyl ester] | – | 290 nM | 370 nM
12 | O=C(N[C@@H](Cc1c[nH]cn1)C(=O)NCCc1ccccc1)C(Cc1cccc2ccccc12)Cc1cccc2ccccc12 [Example 50] | – | 4800 nM | 6000 nM
13 | COC(=O)[C@H](Cc1c[nH]cn1)N(C)C(=O)C(Cc1cccc2ccccc12)Cc1cccc2ccccc12 [Example 51, (S)-3-(1H-Imidazol-4-yl-2-[methyl-(3-naphthalen-1-yl-2-naphthalen-1-ylmethyl-propionyl)-amino]-propionic acid, methyl ester, trifluoroacetate] | 5 µM | 2000 nM | 2200 nM
14 | O=C(N[C@H](CO)Cc1c[nH]cn1)C(Cc1cccc2ccccc12)Cc1cccc2ccccc12 [Example 52, (S)-N-[1-Hydroxymethyl-2-(1H-imidazol-4-yl)-ethyl]-3-naphthalen-1-yl-2-naphthalen-1-ylmethyl-propionamide] | 25 µM | 3000 nM | 3400 nM
15 | O=C(N[C@@H](Cc1c[nH]cn1)C(=O)OCCc1ccccc1)C(Cc1cccc2ccccc12)Cc1cccc2ccccc12 [Example 53, (S)-3-(1H-Imidazol-4-yl)-2-(3-naphthalen-1-yl-2-naphthalen-1-ylmethyl-propionylamino)-propionic acid, phenethyl ester] | 25 µM | 70 nM | 60 nM
16 | N#CCCCOC(=O)[C@H](Cc1c[nH]cn1)NC(=O)C(Cc1cccc2ccccc12)Cc1cccc2ccccc12 [Example 54, (S)-3-(1H-Imidazol-4-yl)-2-(3-naphthalen-1-yl-2-naphthalen-1-ylmethyl-propionyiamino)-propionic acid, 3-cyano-propyl ester] | – | 440 nM | 370 nM
17 | CC(C)=CCOC(=O)[C@H](Cc1c[nH]cn1)NC(=O)C(Cc1cccc2ccccc12)Cc1cccc2ccccc12 [Example 55, (S)-3-(1H-Imidazol-4-yl)-2-(3-naphthalen-1-yl-2-naphthalen-1-ylmethyl-propionylamino)-propionic acid 3-methyl-but-2-enyl ester] | – | 5300 nM | 4300 nM
18 | COC(=O)[C@H](Cc1c[nH]cn1)NCC(Cc1cccc2ccccc12)Cc1cccc2ccccc12 [Example 56, (S)-3-(1H-Imidazol-4-yl)-2-(3-naphthalen-1-yl-2-naphthalen-1-ylmethyl-propylamino)-propionic acid methyl ester] | – | 370 nM | 360 nM
19 | COC(=O)COC(=O)[C@H](Cc1c[nH]cn1)NC(=O)C(Cc1cccc2ccccc12)Cc1cccc2ccccc12 [Example 57, (S)-3-(1H-Imidazol-4-yl)-2-(3-naphthalen-1-yl-2-naphthalen-1-ylmethyl-propionylamino)-propionic acid, methoxycarbonylmethyl ester] | – | 5500 nM | 4100 nM
20 | N#CCOC(=O)[C@H](Cc1c[nH]cn1)NC(=O)C(Cc1cccc2ccccc12)Cc1cccc2ccccc12 [Example 58, (S )-3-(1H-Imidazol-4-yl)-2-(3-naphthalen-1-yl-2-naphthalen-1-ylmethyl-propionylamino)-propionic acid, cyanomethyl ester] | – | 400 nM | 510 nM
21 | O=C(N[C@@H](Cc1c[nH]cn1)C(=O)OCCSSCCO)C(Cc1cccc2ccccc12)Cc1cccc2ccccc12 [Example 59, (S)-3-(1H-Imidazol-4-yl)-2-(3-naphthalen-1-yl-2-naphthalen-1-ylmethyl-propionylamino)-propionic acid, 2-(2-hydroxy-ethyldisulfanyl)-ethyl ester] | – | 1300 nM | 1000 nM
22 | COCn1cncc1C[C@H](NC(=O)C(Cc1cccc2ccccc12)Cc1cccc2ccccc12)C(=O)OC [Example 60, (S)-3-(3-Methoxymethyl-3H-imidazol-4-yl)-2-(3-naphthalen-1-yl-2-naphthalen-1-ylmethyl-propionylamino)-propionic acid, methyl ester] | – | 930 nM | 1000 nM
23 | OC[C@H](Cc1c[nH]cn1)NCC(Cc1cccc2ccccc12)Cc1cccc2ccccc12 [Example 62, (S)-3-(1H-Imidazol-4-yl)-2-(3-naphthalen-1-yl-2-naphthalen-1-ylmethyl-propylamino)-propan-1-ol] | – | 550 nM | 500 nM
24 | CNC(=O)[C@H](Cc1c[nH]cn1)NCC(Cc1cccc2ccccc12)Cc1cccc2ccccc12 [Example 63, (S)-3-(1H-Imidazol-4-yl)-N-methyl-2-(3-naphthalen-1-yl-2-naphthalen-1-ylmethyl-propylamino)-propionamide] | – | 200 nM | 240 nM
25 | CNC(=O)[C@H](Cc1cncn1C)NC(=O)C(Cc1cccc2ccccc12)Cc1cccc2ccccc12 [Example 64, (S)-N-[1-Methylcarbamoyl-2-(3-methyl-3H-imidazol-4-yl)-ethyl]-3-naphthalen-1-yl-2-naphthalen-1-ylmethyl-propionamide] | – | 610 nM | 460 nM
